Read-outs that look alike come from different tables or passages of the source.
What was measured:
[1] = tested on: CYP2B6 transcription; assay: CYP induction (transcription); assay type: in vitro ADME; conditions: up to 3 μM, 24 hours
[2] = biological target: T1, human OAT3 (Homo sapiens, UniProt Q8TCC7); assay: SLC transporter inhibition in HEK293 cells; assay type: in vitro ADME
T1 construct: expressed in transfected cells; host or cells: HEK293
T1 sequence (Q8TCC7 1-542): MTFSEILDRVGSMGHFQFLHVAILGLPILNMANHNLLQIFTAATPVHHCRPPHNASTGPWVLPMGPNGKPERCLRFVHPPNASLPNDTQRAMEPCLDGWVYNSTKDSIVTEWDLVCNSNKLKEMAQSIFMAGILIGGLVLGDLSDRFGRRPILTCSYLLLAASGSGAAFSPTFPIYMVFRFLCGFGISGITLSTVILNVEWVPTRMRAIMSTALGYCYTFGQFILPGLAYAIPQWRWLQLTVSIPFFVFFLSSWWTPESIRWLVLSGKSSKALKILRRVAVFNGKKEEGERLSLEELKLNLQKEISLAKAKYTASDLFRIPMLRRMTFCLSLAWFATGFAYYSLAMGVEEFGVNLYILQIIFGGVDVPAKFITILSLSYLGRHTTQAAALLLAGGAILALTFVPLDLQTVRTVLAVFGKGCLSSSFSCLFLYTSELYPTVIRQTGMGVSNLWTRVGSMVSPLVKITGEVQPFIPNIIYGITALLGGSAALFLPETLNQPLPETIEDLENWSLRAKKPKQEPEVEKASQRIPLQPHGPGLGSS

[3] = tested on: COV318 cells; assay: Cell cycle by EdU flow cytometry; assay type: cell-based, human; conditions: 10 nM to 10 μM, 24 hours
Experimental: Cells were plated at 100,000 cells/well in Corning 6 cm tissue culture treated plates. […] Cells were collected and fixed in 1% paraformaldehyde. Cells were incubated with Alexa488 azide dye as described by Thermo Scientific. Cells were then incubated with […]-violet and RNase. Cells were analyzed on a BD Celesta and data compiled using FloJo and GraphPad.

[4] = Mouse hollow fiber assay, animal weight; assay type: in vivo, mice; conditions: 75, 100, 150 mg/kg twice daily
Experimental: (§1) The mouse hollow fiber assay was conducted using three tumor cell lines, OVCAR-3 (ovarian), MKN-1 (gastric), and HCC-1569 (breast), 1e7 OVCAR-3, 5e6 MKN-1, and 1e7 HCC-1569 cells were loaded into Hollow Fibers, placed in cell culture dishes containing RPMI-1640 with 20% FCS and 1% penicillin/streptomycin, and were equilibrated in an incubator at 37 C, 5% CO2 overnight. On Day 0, three fibers were implanted in two different compartments: subcutaneous and intraperitoneal of twenty-four female NMRI nude mice ages 4-5 weeks. […] Female NMRI nude mice were implanted both subcutaneously and intraperitoneally with HCC-1569, MKN1, and OVCAR3 tumor cell-loaded Hollow Fibers on Day 0. The number of animals alive on Day 0 (implantation) and on Day 16 (necropsy) in each group is shown in parentheses in the legend.

[5] = tested on: Palbo-R MCF7 PDRC15-1 cells; assay: Cell cycle by EdU flow cytometry; assay type: cell-based, human; conditions: with 1 μM palbociclib, 24 hours
Experimental: The Palbo-sensitive (Palbo-S) MCF7 parental and Palbo-R daughter cells (MCF7 PDRC15-1) human […] carcinoma cell line was grown in MEM/1× Glutamax/1× Insulin/10% fetal bovine serum with the PDR cells grown in the presence of 1 μM palbociclib. Cells were plated at 100,000 cells/well in Corning 6 cm tissue culture treated plates. […] Cells were treated for 24 hours and 10 μM EdU was added 1 hour prior to collection. Cells were collected and fixed in 1% paraformaldehyde. Cells were incubated with Alexa488 azide dye as described by Thermo Scientific. Cells were then incubated with FarRed dye and RNase. Cells were analyzed on a BD Celesta and data compiled using FloJo and GraphPad. […] The resistant Palbo-R MCF7 cells have a much lower percent of cells in S phase in general.

[6] = tested on: MCF7PDRC15-1 palbociclib resistant breast cancer cells; assay: CellTiter-Glo viability, palbociclib-resistant MCF7; assay type: cell-based; conditions: Homo sapiens
Experimental: Plates were removed from incubator on day six and treated with CellTiter-Glo (Promega, Inc) following manufacturer's specifications. Plates were then read on Biotek luminometer with 1 sec/well integration. Results were converted to Microsoft Excel and transferred to Graphpad Prism for analysis.
(§2) The Palbo-R MCF7PDRCL5-1 cells were grown in EMEM, glutamax, 10% FBS, 1×ITS. […] Plates were removed from incubator on day six and treated with CellTiter-Glo (Promega, Inc) following manufacturer's specifications. Plates were then read on Biotek luminometer with 1 sec/well integration. Results were converted to Microsoft Excel and transferred to Graphpad Prism for analysis.
as §2, with “In a similar manner,” for “The”, “Glutamax,” for “glutamax,”

[7] = biological target: T2, hERG current (Homo sapiens, UniProt Q12809); assay: hERG whole-cell patch clamp in HEK293 cells; assay type: cell-based; conditions: 37±1° C.; read-out: hERG current amplitude IC50
T2 construct: expressed in transfected cells; host or cells: HEK293 (stably transfected)
Experimental: Experiments were performed at 37±1° C. Currents were measured using the whole-cell patch clamp method. Glass pipettes were pulled from borosilicate glass by a horizontal puller (Sutter Instruments, USA). Bath temperature was measured by a thermistor placed near the cell under study and were maintained by a thermoelectric device. An Axopatch 1-D amplifier of voltage clamp pulses and data acquisition was controlled by a computer running pClamp software (v10.7). The voltage protocol comprised: −80 mV for 100 ms, +40 mV for 500 ms, a −60 ms decreased slope of 1.2 V/see, then −80 mV for 3 s. Current was measured as outward current during ramp, with a pacing rate of 0.2 Hz (every 5 s), filtered at 2 kHz and digitized at 5 kHz. This protocol was repeated every 5 s until hERG tail current maintains stability, defined as approximately <10% change in current amplitude for at least 6 consecutive traces. Then the Compound I was applied as the protocol continues. Current was measured as the peak current during the ramp. […] Values were derived using the average of 3 current traces.

[8] = tested on: OVCAR-3 cell loaded Hollow Fibers; assay: Mouse hollow fiber assay (CellTiter Glo); assay type: in vivo, mice; conditions: 75, 100, 150 mg/kg twice daily, Day 16
Experimental: as §1
OVCAR-3 cell loaded Hollow Fibers were implanted both subcutaneously and intraperitoneally into female NMRI nude mice on Day 0. Hollow Fibers were collected during necropsy on Day 16 and analyzed using a CellTiter Glo® assay.

T2 sequence (Q12809 whole entry): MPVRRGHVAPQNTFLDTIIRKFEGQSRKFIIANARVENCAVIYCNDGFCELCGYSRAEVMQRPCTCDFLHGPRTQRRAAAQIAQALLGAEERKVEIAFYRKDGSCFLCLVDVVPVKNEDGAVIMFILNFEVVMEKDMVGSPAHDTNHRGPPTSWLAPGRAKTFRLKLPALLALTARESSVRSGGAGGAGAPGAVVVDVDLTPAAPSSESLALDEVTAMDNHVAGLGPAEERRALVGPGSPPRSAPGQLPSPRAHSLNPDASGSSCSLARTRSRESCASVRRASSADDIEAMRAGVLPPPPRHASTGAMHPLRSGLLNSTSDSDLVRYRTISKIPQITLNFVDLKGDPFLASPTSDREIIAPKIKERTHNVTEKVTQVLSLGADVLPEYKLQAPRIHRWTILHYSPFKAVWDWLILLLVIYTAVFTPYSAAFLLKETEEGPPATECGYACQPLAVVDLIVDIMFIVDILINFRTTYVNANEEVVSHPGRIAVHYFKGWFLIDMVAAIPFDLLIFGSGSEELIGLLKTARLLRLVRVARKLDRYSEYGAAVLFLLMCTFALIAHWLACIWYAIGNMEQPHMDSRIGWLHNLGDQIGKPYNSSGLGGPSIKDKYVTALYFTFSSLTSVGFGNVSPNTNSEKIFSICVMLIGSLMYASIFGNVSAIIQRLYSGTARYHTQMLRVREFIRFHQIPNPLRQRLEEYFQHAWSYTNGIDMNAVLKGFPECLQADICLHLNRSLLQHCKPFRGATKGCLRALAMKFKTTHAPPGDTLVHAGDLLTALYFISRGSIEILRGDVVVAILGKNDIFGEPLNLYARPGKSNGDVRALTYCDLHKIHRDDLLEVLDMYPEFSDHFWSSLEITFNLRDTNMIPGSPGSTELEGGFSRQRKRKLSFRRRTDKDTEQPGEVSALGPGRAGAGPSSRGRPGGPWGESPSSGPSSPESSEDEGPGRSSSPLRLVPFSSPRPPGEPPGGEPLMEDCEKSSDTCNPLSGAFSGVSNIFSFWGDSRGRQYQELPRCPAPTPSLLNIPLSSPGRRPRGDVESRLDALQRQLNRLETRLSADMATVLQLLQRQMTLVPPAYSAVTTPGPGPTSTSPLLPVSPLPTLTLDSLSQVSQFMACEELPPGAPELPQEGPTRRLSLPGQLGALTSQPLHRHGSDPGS

In the case of NS(=O)(=O)c1ccc(Nc2ncc3cc4n(c3n2)C2(CCCCC2)C(=O)NN4)cc1 [Compound I], the “induction of CYP2B6 transcription” value [1] is reported as “no observed induction”, the “Maximum Percent inhibition” value ([2]; OAT3, HEK293 cells) is reported as 86% and the IC50 ([2]; OAT3, HEK293 cells, read-out: IC50) is reported as 4.01 µM. For the same compound, the IC50 ([2]; read-out: OAT3 IC50) was 4.01 µM, the “cell cycle distribution with increasing concentrations” value [3] was “exit the S-phase and increasingly occupy the G0-G1 phase” and the animal weight [4] was “No animal weight changes were observed”. The cell cycle arrest [5] was “arrested during the G1 phase at 30, 100, 300 nM”, the IC50 ([6]; MCF7, read-out: Cell Viability IC50, Compound I alone, absence of palbociclib) was 0.995 µM and the IC50 ([6]; MCF7, read-out: Cell Viability IC50, in the presence of 1 μM palbociclib) was 0.017 µM. The IC50 [7] was 8.6 µM and the “tumor bioluminescence signal (CellTiter Glo) of Hollow Fibers” value [8] was “significant reduction”.

— patent US20250199015A1, “CYCLIN-DEPENDENT KINASE 2 INHIBITORS FOR MEDICAL TREATMENT” (INCYCLIX BIO, LLC, priority 2022, published 2025)
